Test results published in patent US10905691B2, “Use of triazolo(4,5-d)pyrimidine derivatives for prevention and treatment of bacterial infection” (Universite de Liege, priority 2016, dated 2021).
Converted amounts (≈) assume the structure as drawn.

How the values were obtained:
S. aureus ATCC 6538 = test: MIC determination (EUCAST, Mueller-Hinton broth); assay type: cell-based; settings: Staphylococcus aureus, ATCC6538
Experimental: (§1) Further experiments were conducted using different strains of S. aureus, as clinically relevant Gram-positive bacterial strains: ATCC 25904, ATCC 6538, methilcillin-resistant S. aureus (MRSA) ATCC BAA-1556, Glycopeptide intermediate-resistant (GISA) S. aureus Mu-50 (ATCC 700695) in order to determine the Minimal Inhibitory Concentration (MIC) which is the minimal concentration required to prevent bacterial growth; the Minimal Bactericidal Concentration (MBC) which determines the lowest concentration at which an antimicrobial agent kill a particular microorganism and a Minimum Duration for killing 99.9% bacteria (MDK99.9) which is a tolerance metric according to the EUCAST.
MIC determination: A single colony selected from the different strains of S. aureus is resuspended and cultured in the appropriate medium overnight (O/N) in aerobic conditions (37° C. with 220 rpm shaking), next day a 1:100 inoculum in Mueller-Hinton broth (MHB) was incubated in aerobic conditions for 3 hr (OD=0.08-0.1) and an inoculum of 1:300 dilution, corresponding to 3×10^5 CFU/ml, was incubated in presence or absence of different concentrations of Triafluocyl in 1% DMSO. After O/N growth the OD of each culture was measured at 600 nm in a spectrophotometer (OD600). […]

[1] = tested on: S. agalactiae (ATCC 12386); test: MBC and MDK99.9 determination (CFU counting); assay type: cell-based, Streptococcus agalactiae
Experimental: as §1, with “using” for “using different strains of”, “agalactiae (ATCC 12386),” for “aureus,”, “strains” for “strains: ATCC 25904, ATCC 6538, methilcillin-resistant S. aureus (MRSA) ATCC BAA-1556, Glycopeptide intermediate-resistant (GISA) S. aureus Mu-50 (ATCC 700695)”
MBC and MDK99.9 determination: A single colony selected from S. agalactiae (ATCC 12386) is resuspended and cultured in the appropriate medium (TSB, or BHI) overnight (O/N) in aerobic conditions (37° C. with 220 rpm shaking), next day a 1:100 inoculum in the appropriate medium was incubated in aerobic conditions for 2 h. The culture is then challenged with triafluocyl at MIC concentration or higher concentrations. Bacterial growth was measured after different time intervals by counting the colony-forming units after plating appropriate culture dilutions on BHI agar plates. […] And the real time needed is defined as the MDK99.9. MBC for Triafluocyl against S. agalactiae (ATCC 12386) was 40 μg/ml. MDK99.9 for Triafluocyl against S. agalactiae (ATCC 12386) was 1 hour.

E. faecalis (ATCC 29212) = test: Growth kinetics in logarithmic phase (OD600 and viable count); assay type: cell-based, Enterococcus faecalis; settings: 30-120 min, FIG. 3
Experimental: E. faecalis (ATCC 29212) was grown overnight in Brain heart infusion (BHI) medium, diluted 1:100 in fresh BHI, and incubated aerobically at 37° C. until bacteria growth reached a logarithmic phase (OD600=0.25-0.3).
Increasing concentrations of Triafluocyl (Cayman Chemical, Item No. 15425) or DMSO as vehicle was then added in 5 ml of bacteria suspensions. Bacterial growth was measured after different time intervals (30-120 min) by spectrophotometry (OD600) and by counting the colony-forming units after plating appropriate culture dilutions on BHI agar plates.
In FIG. 3 kinetics of E. faecalis growth in the presence of an increasing concentrations (5 μg/ml to 40 μg/ml) of Triafluocyl were measured by turbidity measurement (upper graph), and viable count (lower graph). Data represent medians±range (n=3).

S. epidermidis biofilm = test: Biofilm formation (crystal violet, 24-well plate); assay type: cell-based, Staphylococcus epidermidis
Experimental: To study the effect of Triafluocyl on biofilm formation, S. epidermidis in early logarithmic phase (5×10^8 CFU/ml) was plated in a 24-well plate and let to adhere at the bottom of the well for 4 hr at 37° C. in static conditions. After 4 hr incubation, planktonic bacteria were removed and adherent bacteria were washed twice in TSB. Fresh TSB medium supplemented or not with 0.25% glucose was added to the well with 5 different concentrations of Triafluocyl and incubated for 24 hours. Wells were washed 3 times with NaCl 0.9% and incubated for 1 hr at RT with Crystal Violet 1% solution in dH2O to stain the biofilm. Wells were washed 3 times with dH2O to eliminate unbound crystal violet, then 400 μl Acetic Acid 10% was added and incubated at RT for 10 min. Absorbance was measured in triplicate at 570 nm, reflecting total biomass of the biofilm (live and dead bacteria). The concentration of Triafluocyl that inhibits at least 90% biofilm formation is called minimum biofilm inhibitory concentration (MBIC). Triafluocyl MBIC for S. epidermidis is 50 μg/ml both in the presence and in the absence of glucose.

S. aureus Mu50 GISA = test: Killing curve (CFU counting); assay type: cell-based, Staphylococcus aureus; settings: Triafluocyl 20 μg/ml vs high dose of Minocycline; FIG. 8B
Experimental: S. aureus Mu50 GISA was grown overnight in brain heart infusion (BHI) medium, diluted 1:100 in fresh BHI, and incubated aerobically at 37° C. until bacteria growth reached a logarithmic phase (OD600=0.25-0.3).
[…] Bacterial growth was measured after different time intervals by counting the colony-forming units after plating appropriate culture dilutions on BHI agar plates.

[2] = tested on: E. faecalis VRE (ATCC BAA-2365); test: Killing curve (CFU counting); assay type: cell-based, Enterococcus faecalis; settings: Triafluocyl 20 μg/ml; Minocycline 10 μg/ml; FIG. 8C
Experimental: E. faecalis VRE (ATCC BAA-2365) was grown overnight in brain heart infusion (BHI) medium, diluted 1:100 in fresh BHI, and incubated aerobically at 37° C. until bacteria growth reached a logarithmic phase (OD600=0.2-0.25).
Triafluocyl (Cayman Chemical, Item No. 15425) (20 μg/ml), Minocycline (Sigma, 10 μg/ml) or vehicle (DMSO) was then added in 5 ml of bacteria suspensions. Bacterial growth was measured after different time intervals by counting the colony-forming units after plating appropriate culture dilutions on BHI agar plates.

SMILES: CCCSc1nc(N[C@@H]2C[C@H]2c2ccc(F)c(F)c2)c2nnn([C@@H]3C[C@H](OCCO)[C@@H](O)[C@H]3O)c2n1 [Triafluocyl, (1S,2S,3R,5S)-3-[7-[(1R,2S)-2-(3,4-difluorophenyl)cyclopropylamino]-5-(propylthio)-3H-[1,2,3]-triazolo[4,5-d]pyrimidin-3-yl]-5-(2-hydroxyethoxy)-1,2-cyclopentanediol]
- MIC (S. aureus ATCC 6538): 20 µg/mL (≈ 38.3 µM)
- MDK 99.9 Time (h) needed to kill 99.9% of the started inoculum [1]: 1 h
- MBC ([1]; Streptococcus agalactiae, ATCC12386, cut-off 99.9% reduction in CFU): 40 µg/mL (≈ 76.5 µM)
- effect on bacterial growth (turbidity and viable count) (E. faecalis (ATCC 29212); 10 μg/ml): able to inhibit bacterial growth
- effect on bacterial growth (turbidity and viable count) (E. faecalis (ATCC 29212); 20 μg/ml): potent bactericidal effects
- effect on bacterial growth (turbidity and viable count) (E. faecalis (ATCC 29212); 40 μg/ml): potent bactericidal effects
- biofilm reduction (S. epidermidis biofilm; 20 μg/ml, presence of glucose (0.25%), 24 hours): 50%
- inhibition at 5 µg/mL (S. epidermidis biofilm; Staphylococcus epidermidis, 5 μg/ml, absence of glucose, 24 hours): 50%
- minimum biofilm inhibitory concentration (MBIC), at least 90% inhibition of biofilm formation (S. epidermidis biofilm; absence of glucose): 50 µg/mL
- minimum biofilm inhibitory concentration (MBIC), at least 90% inhibition of biofilm formation (S. epidermidis biofilm; presence of glucose): 50 µg/mL
- antibacterial effect on S. aureus GISA compared with Minocycline (S. aureus Mu50 GISA): quicker and more efficient antibacterial effect
- antibacterial effect on E. faecalis VRE (killing curve) [2]: bactericidal effect
